From US12091393B2, “Small molecule vaccine adjuvant for enhancing or prolonging immune response” (The Regents of the University of California, priority 2018, dated 2024)
Entries after “also recorded” stand apart in the source; their conditions may differ. Where two headings read alike, the source gives them in different places.

Tests used:
NF-κB [1] = test: Measurement of NF-κB activation using THP1-Blue NF-κB cells (SEAP); type: cell-based; conditions: for NF-κB activity (SAR discussion, in words): evaluated in both the presence and absence of LPS
THP-1 cells = test: Cell viability assay (MTT); type: cell-based; conditions: compound 5 μM alone, 18 h, normalized to DMSO as 100%
Procedure, shortened: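 THP-1 cells in RPMI/10% FBS got compound at a final 5 μM (0.05% DMSO) for 18 h. MTT (0.5 mg/mL) was then added for 4 to 6 h, followed by SDS/HCl lysis overnight. Absorbance was read at 570 nm against 650 nm reference.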

NF-κB [2] = test: cell-based NF-κB FRET assay; conditions: compound + LPS; two point normalized, compound 1 as 200%, LPS (10 ng/mL) as 100%
Excerpt: Site A was assigned the 4-substituent of thiazole ring, site B was the thiazole ring itself, site C was the central amide bond in the structure, site D was the benzene ring bearing 1,4-carboxyl and sulfamoyl group, site E was the sulfonamide functional group and site F was the amide substituent on the sulfamoyl group.

[3] = compound 5 μM + LPS, 20 h, two point normalized, compound 1 as 200%, LPS (10 ng/mL) as 100%, read-out: NF-κB SEAP Compound + LPS % Activation
[4] = compound 5 μM alone, 20 h, two point normalized, compound 1 as 200%, LPS or DMSO as 100%, read-out: NF-κB SEAP Compound alone % Activation

## CCCCc1sc(NC(=O)c2ccc(S(=O)(=O)N3CCCCC3)cc2)nc1-c1cc(C)ccc1C [Compound 18s, N-(5-butyl-4-(2,5-dimethylphenyl)thiazol-2-yl)-4-(piperidin-1-ylsulfonyl)benzamide]
NF-κB [1]; [3]
  activity at 5 µM: 124%
NF-κB [1]; [4]
  activity at 5 µM: 116%
NF-κB [1]
  NF-κB activity (SAR discussion, in words): retained activity
THP-1 cells
  MTT Compound alone % Viability: 141.98%
NF-κB [2]
  NF-κB FRET Compound + LPS % Activation: 176.96%

## Cc1ccc(C)c(-c2csc(NC(=O)c3ccc(S(=O)(=O)N4CCCCC4)cn3)n2)c1 [Compound 46a, N-(4-(2,5-dimethylphenyl)thiazol-2-yl)-5-(piperidin-1-ylsulfonyl)picolinamide]
NF-κB [1]; [3]
  activity at 5 µM: 111%
NF-κB [1]; [4]
  activity at 5 µM: 99.2%
NF-κB [1]
  NF-κB activity (SAR discussion, in words): none of these modifications at site D or E were tolerated
THP-1 cells
  MTT Compound alone % Viability: 94.46%
NF-κB [2]
  NF-κB FRET Compound + LPS % Activation: 151.90%

## Cc1ccc(C)c(-c2nc(NC(=O)c3ccc(S(=O)(=O)N4CCCCC4)cc3)sc2-c2ccco2)c1 [Compound 18j, N-(4-(2,5-dimethylphenyl)-5-(furan-2-yl)thiazol-2-yl)-4-(piperidin-1-ylsulfonyl)benzamide]
NF-κB [1]; [3]
  activity at 5 µM: 102%
NF-κB [1]; [4]
  activity at 5 µM: 100%
NF-κB [1]
  NF-κB activity (SAR discussion, in words): completely inactive
THP-1 cells
  MTT Compound alone % Viability: 107.56%
NF-κB [2]
  NF-κB FRET Compound + LPS % Activation: 160.49%

## CCCN(CCC)S(=O)(=O)c1ccc(C(=O)Nc2nc(-c3cc(C)ccc3C)cs2)cc1 [Compound 58b, N-(4-(2,5-dimethylphenyl)thiazol-2-yl)-4-(N,N-dipropylsulfamoyl)benzamide]
NF-κB [1]; [3]
  activity at 5 µM: 260%
NF-κB [1]; [4]
  activity at 5 µM: 243%
NF-κB [1]
  NF-κB activity (SAR discussion, in words): tolerated; also recorded: active
THP-1 cells
  MTT Compound alone % Viability: 83.69%
NF-κB [2]
  NF-κB FRET Compound + LPS % Activation: 190.52%

## CCSc1sc(NC(=O)c2ccc(S(=O)(=O)N3CCCCC3)cc2)nc1-c1cc(C)ccc1C [Compound 18k, N-(4-(2,5-dimethylphenyl)-5-(ethylthio)thiazo-2-yl)-4-(piperidin-1-ylsulfonyl)benzamide]
NF-κB [1]; compound 5 μM + LPS, 20 h, two point normalized, compound 1 as 200%, LPS (10 ng/mL) as 100%
  NF-κB SEAP Compound + LPS % Activation: 104.47%
NF-κB [1]; compound 5 μM alone, 20 h, two point normalized, compound 1 as 200%, LPS or DMSO as 100%
  NF-κB SEAP Compound alone % Activation: 100.75%
NF-κB [1]
  NF-κB activity (SAR discussion, in words): completely inactive
THP-1 cells
  MTT Compound alone % Viability: 111.74%
NF-κB [2]
  NF-κB FRET Compound + LPS % Activation: 167.51%

## CCCc1csc(NC(=O)c2ccc(S(=O)(=O)N3CCCCC3)cc2)n1 [Compound 12i, 4-(piperidin-1-ylsulfonyl)-N-(4-propylthiazol-2-yl)benzamide]
NF-κB [1]; [3]
  activity at 5 µM: 94.2%
NF-κB [1]; [4]
  activity at 5 µM: 99.2%
NF-κB [1]
  NF-κB activity (SAR discussion, in words): None of these molecules had any NF-κB activity
THP-1 cells
  MTT Compound alone % Viability: 122.66%
NF-κB [2]
  NF-κB FRET Compound + LPS % Activation: 112.46%

## Cc1ccc(C)c(-c2cccc(NC(=O)c3ccc(S(=O)(=O)N4CCCCC4)cc3)n2)c1 [Compound 18b, N-(6-(2,5-dimethylphenyl)pyridin-2-yl)-4-(piperidin-1-ylsulfonyl)benzamide]
NF-κB [1]; [4]
  activity at 5 µM: 99.6%
NF-κB [1]
  NF-κB activity (SAR discussion, in words): none of these molecules that replaced the thiazole functionality were active
THP-1 cells
  MTT Compound alone % Viability: 93.89%
NF-κB [2]
  NF-κB FRET Compound + LPS % Activation: 146.10%

## Cc1ccc(C)c(-c2csc(NC(=O)c3ccc(S(=O)(=O)N4CCCCC4)nc3)n2)c1 [Compound 46b, N-(4-(2,5-dimethylphenyl)thiazol-2-yl)-6-(piperidin-1-ylsulfonyl)nicotinamide]
NF-κB [1]; [3]
  activity at 5 µM: 115%
NF-κB [1]; [4]
  activity at 5 µM: 100%
NF-κB [1]
  NF-κB activity (SAR discussion, in words): none of these modifications at site D or E were tolerated
THP-1 cells
  MTT Compound alone % Viability: 88.57%
NF-κB [2]
  NF-κB FRET Compound + LPS % Activation: 146.35%

## CC(C)(C)Cc1csc(NC(=O)c2ccc(S(=O)(=O)N3CCCCC3)cc2)n1 [Compound 12j, N-(4-neopentylthiazol-2-yl)-4-(piperidin-1-ylsulfonyl)benzamide]
NF-κB [1]; [3]
  activity at 5 µM: 93.9%
NF-κB [1]; [4]
  activity at 5 µM: 99.5%
NF-κB [1]
  NF-κB activity (SAR discussion, in words): None of these molecules had any NF-κB activity
THP-1 cells
  MTT Compound alone % Viability: 125.52%
NF-κB [2]
  NF-κB FRET Compound + LPS % Activation: 110.62%

## CCCC1CCN(S(=O)(=O)c2ccc(C(=O)Nc3nc(-c4cc(C)ccc4C)cs3)cc2)CC1 [Compound 58h, N-(4-(2,5-dimethylphenyl)thiazol-2-yl)-4-((4-propylpiperidin-1-yl)sulfonyl)benzamide]
NF-κB [1]; [3]
  activity at 5 µM: 248%
NF-κB [1]; [4]
  activity at 5 µM: 517%
NF-κB [1]; compound alone, without LPS
  NF-κB activity when tested alone (in words): very potent
NF-κB [1]
  NF-κB activity (SAR discussion, in words): active; also recorded: most potent
THP-1 cells
  MTT Compound alone % Viability: 111.27%
NF-κB [2]
  NF-κB FRET Compound + LPS % Activation: 218.16%

## Cc1ccc(C)c(-c2csc(NC(=O)c3ccc(C(=O)N4CCCCC4)cc3)n2)c1 [Compound 49c, N-(4-(2,5-dimethylphenyl)thiazol-2-yl)-4-(piperidine-1-carbonyl)benzamide]
NF-κB [1]; [3]
  activity at 5 µM: 109%
NF-κB [1]; [4]
  activity at 5 µM: 99.3%
NF-κB [1]
  NF-κB activity (SAR discussion, in words): none of these modifications at site D or E were tolerated
THP-1 cells
  MTT Compound alone % Viability: 87.59%
NF-κB [2]
  NF-κB FRET Compound + LPS % Activation: 134.09%

## CCCCN(CCCC)S(=O)(=O)c1ccc(C(=O)Nc2nc(-c3cc(C)ccc3C)cs2)cc1 [Compound 58c, 4-(N,N-dibutylsulfamoyl)-N-(4-(2,5-dimethylphenyl)thiazol-2-yl)benzamide]
NF-κB [1]; [3]
  activity at 5 µM: 105%
NF-κB [1]; [4]
  activity at 5 µM: 103%
NF-κB [1]
  NF-κB activity (SAR discussion, in words): lost activity
THP-1 cells
  MTT Compound alone % Viability: 86.41%
NF-κB [2]
  NF-κB FRET Compound + LPS % Activation: 104.47%

## Cc1ccc(C)c(-c2csc(NC(=O)c3ccc(S(=O)(=O)NC4CCCCC4)cc3)n2)c1 [Compound 58e, 4-(N-cyclohexylsulfamoyl)-N-(4-(2,5-dimethylphenyl)thiazol-2-yl)benzamide]
NF-κB [1]; [3]
  activity at 5 µM: 94.5%
NF-κB [1]; [4]
  activity at 5 µM: 98.3%
NF-κB [1]
  NF-κB activity (SAR discussion, in words): inactive
THP-1 cells
  MTT Compound alone % Viability: 93.65%
NF-κB [2]
  NF-κB FRET Compound + LPS % Activation: 52.23%

## CCCC#Cc1sc(NC(=O)c2ccc(S(=O)(=O)N3CCC(CCC)CC3)cc2)nc1-c1cc(C)ccc1C [Compound 61, N-(4-(2,5-dimethylphenyl)-5-(pent-1-yn-1-yl)thiazol-2-yl)-4-((4-propylpiperidin-1-yl)sulfonyl)benzamide]
NF-κB [1]; [3]
  activity at 5 µM: 189%
NF-κB [1]; [4]
  activity at 5 µM: 119%
NF-κB [1]
  NF-κB activity (SAR discussion, in words): very potent and showed better potency than compound 1
THP-1 cells
  MTT Compound alone % Viability: 102.98%
NF-κB [2]
  NF-κB FRET Compound + LPS % Activation: 207.19%

## Cc1cc(C)cc(-c2csc(NC(=O)c3ccc(S(=O)(=O)N4CCCCC4)cc3)n2)c1 [Compound 12o, N-(4-(3,5-dimethylphenyl)thiazol-2-yl)-4-(piperidin-1-ylsulfonyl)benzamide]
NF-κB [1]; [3]
  activity at 5 µM: 93.2%
NF-κB [1]; [4]
  activity at 5 µM: 98.2%
NF-κB [1]
  NF-κB activity (SAR discussion, in words): inactive
THP-1 cells
  MTT Compound alone % Viability: 92.91%
NF-κB [2]
  NF-κB FRET Compound + LPS % Activation: 170.36%

## Cc1cccc(-c2csc(NC(=O)c3ccc(S(=O)(=O)N4CCCCC4)cc3)n2)c1C [Compound 12l, N-(4-(2,3-dimethylphenyl)thiazol-2-yl)-4-(piperidin-1-ylsulfonyl)benzamide]
NF-κB [1]; [3]
  activity at 5 µM: 157%
NF-κB [1]; [4]
  activity at 5 µM: 195%
NF-κB [1]
  NF-κB activity (SAR discussion, in words): retained activity
THP-1 cells
  MTT Compound alone % Viability: 98.37%
NF-κB [2]
  NF-κB FRET Compound + LPS % Activation: 206.60%

## Cc1ccc(C)c(-c2csc(NCc3ccc(S(=O)(=O)N4CCCCC4)cc3)n2)c1 [Compound 34a, 4-(2,5-dimethylphenyl)-N-(4-(piperidin-1-ylsulfonyl)benzyl)thiazol-2-amine]
NF-κB [1]; [3]
  activity at 5 µM: 102%
NF-κB [1]; [4]
  activity at 5 µM: 99.1%
NF-κB [1]
  NF-κB activity (SAR discussion, in words): inactive
THP-1 cells
  MTT Compound alone % Viability: 85.48%
NF-κB [2]
  NF-κB FRET Compound + LPS % Activation: 106.53%

## Cc1ccc(C)c(-c2csc(N(C)C(=O)c3ccc(S(=O)(=O)N4CCCCC4)cc3)n2)c1 [Compound 34c, N-(4-(2,5-dimethylphenyl)thiazol-2-yl)-N-methyl-4-(piperidin-1-ylsulfonyl)benzamide]
NF-κB [1]; [3]
  activity at 5 µM: 105%
NF-κB [1]; [4]
  activity at 5 µM: 101%
NF-κB [1]
  NF-κB activity (SAR discussion, in words): inactive
THP-1 cells
  MTT Compound alone % Viability: 97.43%
NF-κB [2]
  NF-κB FRET Compound + LPS % Activation: 143.05%

## CCN(c1ccccc1)S(=O)(=O)c1ccc(C(=O)Nc2nc(-c3cc(C)ccc3C)cs2)cc1 [Compound 58d, N-(4-(2,5-dimethylphenyl)thiazol-2-yl)-4-(N-ethyl-N-phenylsulfamoyl)benzamide]
NF-κB [1]; [3]
  activity at 5 µM: 89.8%
NF-κB [1]; [4]
  activity at 5 µM: 105%
NF-κB [1]
  NF-κB activity (SAR discussion, in words): inactive
THP-1 cells
  MTT Compound alone % Viability: 81.42%
NF-κB [2]
  NF-κB FRET Compound + LPS % Activation: 74.73%

## Cc1ccc(C)c(-c2nc(NC(=O)c3ccc(S(=O)(=O)N4CCCCC4)cc3)sc2Br)c1 [Compound 18n, N-(5-bromo-4-(2,5-dimethylphenyl)thiazol-2-yl)-4-(piperidin-1-ylsulfonyl)benzamide]
NF-κB [1]; [3]
  activity at 5 µM: 198%
NF-κB [1]; [4]
  activity at 5 µM: 133%
THP-1 cells
  MTT Compound alone % Viability: 84.46%
NF-κB [2]
  NF-κB FRET Compound + LPS % Activation: 154.54%

## CCOC1CCN(S(=O)(=O)c2ccc(C(=O)Nc3nc(-c4cc(C)ccc4C)cs3)cc2)CC1 [Compound 58g, N-(4-(2,5-dimethylphenyl)thiazol-2-yl)-4-((4-ethoxypiperidin-1-yl)sulfonyl)benzamide]
NF-κB [1]; [3]
  activity at 5 µM: 178%
NF-κB [1]; [4]
  activity at 5 µM: 200%
NF-κB [1]
  NF-κB activity (SAR discussion, in words): active
THP-1 cells
  MTT Compound alone % Viability: 112.63%
NF-κB [2]
  NF-κB FRET Compound + LPS % Activation: 189.46%
